Measured values reported in patent US10377774B2 (JINAN UNIVERSITY, priority 2013, dated 2019).
Marks after values point to notes of the source that are not given here.

What was measured:
[1] = test system: human non-small-cell lung cancer cell line A549; assay: MTT cell growth inhibition, A549; assay type: cell-based; conditions: Homo sapiens; A549, MTT assay, 72 h; read-out: IC50, growth of tumor cell line
[2] = test system: human colon cancer cell line LOVO; assay: MTT cell growth inhibition, LOVO; assay type: cell-based; conditions: Homo sapiens; LOVO (FAPα positive), MTT assay, 72 h; read-out: IC50, growth of tumor cell line
Text: (§3) Experimental method: Cell lines (human non-small-cell lung cancer cell line A549, human colon cancer cell line LOVO, human nasopharyngeal carcinoma cell line CNE-2, human liver cancer cell line HepG2, human cervical carcinoma cell line Hela, human breast cancer cell lines MCF-7 and MDA-MB-231, human gastric carcinoma cell line NCI-N87, human prostatic cancer cell lines PC-3 and DU145, human leukemia cell line K562, human melanoma cell line A375, human neuroblastoma cell line SH-SY5H, human promyelocytic leukemia cell line HL-60, 5-FU-resistant human hepatocellular carcinoma cell line BEL-7402/5-Fu, doxorubicin-resistant hepatocellular carcinoma cell line HepG2/ADM, doxorubicin-resistant human breast cancer cell lines MCF-7/ADR) at logarithmic phase were resuspended in RPMI 1640 medium (containing 10% fetal bovine serum, 100 U/mL penicillin-streptomycin). Then, 100 μL of cells (cell concentration was 5×10^5/mL) were seeded into 96 wells plate. After 24 h incubation at 37° C. with 5% CO2, tested compounds were added (the control group without compound) for an additional 72 h incubation. After that, 30 μL of MTT [3-(4,5-Dimethylthiazol-2-yl)-2,5-diphenyltetrazolium bromide] solution (5 mg/mL) was added into each well and incubated for another 4 h at 37° C. and then the formazan crystals were solubilized with 100 μL DMSO. Finally, absorbance of each well was determined at 570 nm by a microplate reader (Thermo).
(§4) The concentration required to inhibit cell growth by 50% (IC50) was calculated from survival curves.

[3] = test system: human nasopharyngeal carcinoma cell line CNE-2; assay: MTT cell growth inhibition, CNE-2; assay type: cell-based; conditions: Homo sapiens; CNE-2, MTT assay, 72 h; read-out: IC50, growth of tumor cell line
Text: as §3, §4

[4] = test system: human liver cancer cell line HepG2; assay: MTT cell growth inhibition, HepG2; assay type: cell-based; conditions: Homo sapiens; HepG2, MTT assay, 72 h; read-out: IC50, growth of tumor cell line
[5] = test system: human cervical carcinoma cell line Hela; assay: MTT cell growth inhibition, Hela; assay type: cell-based; conditions: Homo sapiens, MTT assay, 72 h, read-out: IC50, growth of tumor cell line
Text: as §3, §4

[6] = test system: human breast cancer cell line MCF-7; assay: MTT cell growth inhibition, MCF-7; assay type: cell-based; conditions: Homo sapiens, MCF7; MCF-7, MTT assay, 72 h; read-out: IC50, growth of tumor cell line
[7] = test system: human breast cancer cell line MDA-MB-231; assay: MTT cell growth inhibition, MDA-MB-231; assay type: cell-based; conditions: Homo sapiens; MDA-MB-231, MTT assay, 72 h; read-out: IC50, growth of tumor cell line
[8] = test system: human gastric carcinoma cell line NCI-N87; assay: MTT cell growth inhibition, NCI-N87; assay type: cell-based; conditions: Homo sapiens; NCI-N87, MTT assay, 72 h; read-out: IC50, growth of tumor cell line
Text: as §3, §4

[9] = test system: human prostatic cancer cell line PC-3; assay: MTT cell growth inhibition, PC-3; assay type: cell-based; conditions: Homo sapiens; PC-3, MTT assay, 72 h; read-out: IC50, growth of tumor cell line
Text: as §3, §4

[10] = test system: human prostatic cancer cell line DU145; assay: MTT cell growth inhibition, DU-145; assay type: cell-based; conditions: Homo sapiens; DU-145, MTT assay, 72 h; read-out: IC50, growth of tumor cell line
Text: as §3, §4

[11] = test system: human leukemia cell line K562; assay: MTT cell growth inhibition, K562; assay type: cell-based; conditions: Homo sapiens; K562, MTT assay, 72 h; read-out: IC50, growth of tumor cell line
[12] = test system: human melanoma cell line A375; assay: MTT cell growth inhibition, A375; assay type: cell-based; conditions: Homo sapiens, A-375; A375, MTT assay, 72 h; read-out: IC50, growth of tumor cell line
Text: as §3, §4

[13] = test system: human neuroblastoma cell line SH-SY5H; assay: MTT cell growth inhibition, SH-SY5H; assay type: cell-based; conditions: Homo sapiens, Neuroblastoma cell, MTT assay, 72 h, read-out: IC50, growth of tumor cell line
Text: as §3, §4

[14] = test system: human promyelocytic leukemia cell line HL-60; assay: MTT cell growth inhibition, HL-60; assay type: cell-based; conditions: Homo sapiens; HL-60, MTT assay, 72 h; read-out: IC50, growth of tumor cell line
Text: as §3, §4

[15] = test system: 5-FU-resistant human hepatocellular carcinoma cell line BEL-7402/5-Fu; assay: MTT cell growth inhibition, BEL-7402/5-Fu; assay type: cell-based; conditions: Homo sapiens, Bel7402/5-FU, MTT assay, 72 h, read-out: IC50, growth of tumor cell line
[16] = test system: doxorubicin-resistant hepatocellular carcinoma cell line HepG2/ADM; assay: MTT cell growth inhibition, HepG2/ADM; assay type: cell-based, human; conditions: Homo sapiens, MTT assay, 72 h, read-out: IC50, growth of tumor cell line
MDA-MB-231 xenografts = MDA-MB-231 xenografts in nude mice; assay type: in vivo, BALB/nu/nu mice; conditions: MDA-MB-231 xenograft nude mice; for Anti-tumor rate (%) / Body weight (g) Post-dose / Tumor weight: 1 mg/kg i.p. every two days, 8 administrations; for Body weight (g) Pre-dose: before dosing
Experimental: (§1) Experimental method: The MDA-MB-231 cells at logarithmic phase were digested and washed twice with PBS. Then, 100 μL cells (1×10^7) were inoculated subcutaneously on the backs of female BALB/nu/nu mice. After tumors grew to 70˜100 mm^3, the mice were divided randomly into saline group (control group), vinca alkaloids groups (VLB, CCRB, CCFN, CCXJ) and vinca alkaloid derivatives groups (JJ-CCJ, BX-CCJ, JJ-CCRB, BX-CCRB, JJ-CCFN, BX-CCFN, JJ-CCXJ and BX-CCXJ), with six mice per group. 1 mg/kg drugs were injected intraperitoneally every two days, meanwhile body weight and tumor sizes were measured. Experiment was ended after 8 times of drug administration, then tumor and organs were stripped. Tumor volumes were measured using the following formula: V=½(ab^2), whereas a refers to the longest diameter and b is the shortest diameter.

HepG2 xenografts = HepG2 xenografts in nude mice; assay type: in vivo; conditions: HepG2 xenograft nude mice; for Anti-tumor rate (%) / Body weight (g) Post-dose / Tumor weight: 1 mg/kg; for Body weight (g) Pre-dose: before dosing
Experimental: as §1
(§2) Tumor xenograft models of HepG2, LOVO, K562 and HL-60 cell lines were performed as the method described above.

LOVO xenografts = LOVO xenografts in nude mice; assay type: in vivo; conditions: LOVO xenograft nude mice; for Anti-tumor rate (%) / Body weight (g) Post-dose / Tumor weight: 1 mg/kg; for Body weight (g) Pre-dose: before dosing
Experimental: as §1, §2

K562 xenografts = K562 xenografts in nude mice; assay type: in vivo; conditions: K562 xenograft nude mice; for Anti-tumor rate (%) / Body weight (g) Post-dose / Tumor weight: 1 mg/kg; for Body weight (g) Pre-dose: before dosing
Experimental: as §1, §2

HL-60 xenografts = HL-60 xenografts in nude mice; assay type: in vivo; conditions: HL-60 xenograft nude mice; for Anti-tumor rate (%) / Body weight (g) Post-dose / Tumor weight: 1 mg/kg; for Body weight (g) Pre-dose: before dosing
Experimental: as §1, §2

[17] = MTT cytotoxicity on normal cells, LO2; conditions: human, LO2 cells (human normal liver cells)
Experimental: (§5) Then, 100 μL of cells (cell concentration was 5×10^5/mL) were seeded into 96 wells plate. After 24 h incubation at 37° C. with 5% CO2, tested compounds were added (the control group without compound) for an additional 72 h incubation. After that, 30 μL of MTT [3-(4,5-Dimethylthiazol-2-yl)-2,5-diphenyltetrazolium bromide] solution (5 mg/mL) was added into each well and incubated for another 4 h at 37° C. and then the formazan crystals were solubilized with 100 μL DMSO. Finally, absorbance of each well was determined at 570 nm by a microplate reader (Thermo).
(§6) The standard curve was drew with compound concentrations as the abscissa and cell growth inhibition rates as the ordinate. The concentration required to inhibit cell growth by 50% (IC50) was calculated from survival curves.
(§7) Experimental method: In vitro cytotoxicities of vinca alkaloids, hydrazinolyzed vinca alkaloids and vinca alkaloid dipeptide derivatives on human normal liver cells LO2 and human umbilical vein endothelial cells HUVEC were detected according to the method of Example 2.

[18] = MTT cytotoxicity on normal cells, HUVEC; conditions: human, HUVEC (human umbilical vein endothelial cells)
Experimental: as §5, §6, §7

[19] = test system: doxorubicin-resistant human breast cancer cell lines MCF-7/ADR; assay: MTT cell growth inhibition, MCF-7/ADR; assay type: cell-based; conditions: Homo sapiens, NCI/ADR-RES, MTT assay, 72 h, read-out: IC50, growth of tumor cell line
Text: as §3, §4

| SMILES | IC50 [1] [nM] | IC50 [2] [nM] | IC50 [3] [nM] | IC50 [4] [nM] | IC50 [5] [nM] | IC50 [6] [nM] | IC50 [7] [nM] | IC50 [8] [nM] | IC50 [9] [nM] | IC50 [10] [nM] | IC50 [11] [nM] | IC50 [12] [nM] | IC50 [13] [nM] | IC50 [14] [nM] | IC50 [15] [nM] | IC50 [16] [nM] | Anti-tumor rate (%) (MDA-MB-231 xenografts) | Body weight (g) Post-dose (MDA-MB-231 xenografts) [g] | IC50 at 72 h [17] [nM] | IC50 at 72 h [18] [nM] | other results |
| --- | --- | --- | --- | --- | --- | --- | --- | --- | --- | --- | --- | --- | --- | --- | --- | --- | --- | --- | --- | --- | --- |
| CC[C@]1(O)C[C@@H]2CN(CCc3c([nH]c4ccccc34)[C@@](C(=O)OC)(c3cc4c(cc3OC)N(C)[C@H]3[C@@](O)(C(=O)NN)[C@H](O)[C@]5(CC)C=CCN6CC[C@]43[C@@H]65)C2)C1 [JJ-CCJ, hydrazinolyzed vinblastine] | 6.43 ± 2.42 | 32.9 ± 6.39 | 7.14 ± 0.16 | 12.4 ± 0.72 | 14.5 ± 1.81 | 23.9 ± 3.07 | 5.99 ± 3.29 | 17.4 ± 2.2 | 6.27 ± 0.61 | 5.33 ± 0.6 | 3.67 ± 0.79 | 4.56 ± 0.57 | 6.24 ± 1.31 | 8.65 ± 1.28 | 80.3 ± 7.53 | 43.9 ± 3.77 | 87.74** % | 16.4 ± 1.7 | 20.1 ± 0.97 | 36.1 ± 1 | Tumor weight (MDA-MB-231 xenografts): 0.32 ± 0.03 g; Body weight (g) Pre-dose (MDA-MB-231 xenografts): 20.3 ± 0.7 g; Anti-tumor rate (%) (HepG2 xenografts): 77.65** %; Body weight (g) Post-dose (HepG2 xenografts): 16.1 ± 0.3 g; Tumor weight (HepG2 xenografts): 0.57 ± 0.7 g; Body weight (g) Pre-dose (HepG2 xenografts): 21.7 ± 1.2 g; Anti-tumor rate (%) (LOVO xenografts): 77.71** %; Body weight (g) Post-dose (LOVO xenografts): 17.3 ± 1.2 g; Tumor weight (LOVO xenografts): 0.64 ± 0.21 g; Body weight (g) Pre-dose (LOVO xenografts): 22.8 ± 1.7 g; Anti-tumor rate (%) (K562 xenografts): 68.45** %; Body weight (g) Post-dose (K562 xenografts): 16.5 ± 0.8 g; Tumor weight (K562 xenografts): 0.53 ± 0.19 g; Body weight (g) Pre-dose (K562 xenografts): 22.1 ± 1.9 g; Anti-tumor rate (%) (HL-60 xenografts): 69.23** %; Body weight (g) Post-dose (HL-60 xenografts): 16.1 ± 0.4 g; Tumor weight (HL-60 xenografts): 0.64 ± 0.17 g; Body weight (g) Pre-dose (HL-60 xenografts): 20.1 ± 1.7 g |
| CC[C@]1(O)C[C@@H]2CN(CCc3c([nH]c4ccccc34)[C@@](C(=O)OC)(c3cc4c(cc3OC)N[C@H]3[C@@](O)(C(=O)NN)[C@H](O)[C@]5(CC)C=CCN6CC[C@]43[C@@H]65)C2)C1 [JJ-CCXJ, hydrazinolyzed vincristine] | 4.34 ± 0.42 | 24.3 ± 1.09 | 8.37 ± 2.7 | 12.3 ± 1.96 | 23.6 ± 2.97 | 26.9 ± 4.38 | 7.37 ± 1.18 | 10.7 ± 1.78 | 27.1 ± 2.18 | 18.4 ± 3.67 | 12.1 ± 1.67 | 15.6 ± 2.38 | 18.7 ± 2.54 | 32.5 ± 3.51 | 106 ± 5.87 | 44.9 ± 3.67 | 75.86** % | 17.3 ± 1.2 |  |  | IC50 [19]: 63.2 ± 7.74 nM; Tumor weight (MDA-MB-231 xenografts): 0.63 ± 0.15 g; Body weight (g) Pre-dose (MDA-MB-231 xenografts): 21.1 ± 2.5 g; Anti-tumor rate (%) (HepG2 xenografts): 79.21** %; Body weight (g) Post-dose (HepG2 xenografts): 17.8 ± 0.9 g; Tumor weight (HepG2 xenografts): 0.53 ± 0.12 g; Body weight (g) Pre-dose (HepG2 xenografts): 22.0 ± 2.1 g; Anti-tumor rate (%) (LOVO xenografts): 73.52** %; Body weight (g) Post-dose (LOVO xenografts): 17.5 ± 1.3 g; Tumor weight (LOVO xenografts): 0.76 ± 0.16 g; Body weight (g) Pre-dose (LOVO xenografts): 22.9 ± 2.3 g; Anti-tumor rate (%) (K562 xenografts): 60.12** %; Body weight (g) Post-dose (K562 xenografts): 17.1 ± 0.3 g; Tumor weight (K562 xenografts): 0.67 ± 0.22 g; Body weight (g) Pre-dose (K562 xenografts): 22.4 ± 1.7 g; Anti-tumor rate (%) (HL-60 xenografts): 59.62** %; Body weight (g) Post-dose (HL-60 xenografts): 16.3 ± 0.6 g; Tumor weight (HL-60 xenografts): 0.84 ± 0.13 g; Body weight (g) Pre-dose (HL-60 xenografts): 19.7 ± 1.5 g |
| CC[C@]1(O)C[C@H]2CN(CCc3c([nH]c4ccccc34)[C@@](C(=O)OC)(c3cc4c(cc3OC)N(C=O)[C@H]3[C@@](O)(C(=O)OC)[C@H](OC(C)=O)[C@]5(CC)C=CCN6CC[C@]43[C@@H]65)C2)C1 [Vincristine, reference compound] | 1.32 ± 0.03 | 0.74 ± 0.09 | 1.51 ± 0.76 | 0.97 ± 0.12 | 2.33 ± 0.77 | 2.74 ± 0.36 | 1.03 ± 0.22 | 0.87 ± 0.26 | 2.93 ± 0.37 | 1.17 ± 0.31 | 1.07 ± 0.33 | 0.95 ± 0.16 | 1.34 ± 0.21 | 1.81 ± 0.17 | 22.7 ± 3.37 | 7.78 ± 2.01 |  |  | 0.21 ± 0.05 | 0.42 ± 0.09 | IC50 [19]: 9.67 ± 2.2 nM |
| CCC1=C[C@@H]2CN(C1)Cc1c([nH]c3ccccc13)[C@@](C(=O)OC)(c1cc3c(cc1OC)N(C)[C@H]1[C@@](O)(C(=O)OC)[C@H](OC(C)=O)[C@]4(CC)C=CCN5CC[C@]31[C@@H]54)C2 [Vinorelbine, reference compound] | 14.5 ± 1.07 | 7.86 ± 0.16 | 9.03 ± 0.35 | 8.34 ± 0.53 | 11.4 ± 1.04 | 49.5 ± 2.01 | 39.7 ± 5.79 | 35.8 ± 6.57 | 23.7 ± 4.31 | 19.9 ± 0.57 | 12.2 ± 0.54 | 5.64 ± 0.95 | 4.78 ± 0.84 | 8.68 ± 1.35 | 36.1 ± 4.78 | 24.4 ± 3.82 |  |  | 0.97 ± 0.08 | 1.13 ± 0.56 |  |
